Laboratory results: patent US9861612B2 (priority 2014, dated 2018)
Read-outs that look alike come from different tables or passages of the source.

How the values were obtained:
[1] = tested on: TH17 cell differentiation (human CD4+CCR6+ T cells); assay: Human Th17 cell differentiation assay (IL-17A ELISA); type: cell-based; conditions: 96 h, IL-17A in extracellular media by ELISA, 4 days, mean, read-out: Inhibition of TH17 cell differentiation-Mean IC50
[2] = target: RORγ ligand binding domain (Homo sapiens (Human), UniProt P51449); assay: biochemical; type: biochemical
Chain of RORγ ligand binding domain (P51449 whole entry, looked up, the tested form may be a part): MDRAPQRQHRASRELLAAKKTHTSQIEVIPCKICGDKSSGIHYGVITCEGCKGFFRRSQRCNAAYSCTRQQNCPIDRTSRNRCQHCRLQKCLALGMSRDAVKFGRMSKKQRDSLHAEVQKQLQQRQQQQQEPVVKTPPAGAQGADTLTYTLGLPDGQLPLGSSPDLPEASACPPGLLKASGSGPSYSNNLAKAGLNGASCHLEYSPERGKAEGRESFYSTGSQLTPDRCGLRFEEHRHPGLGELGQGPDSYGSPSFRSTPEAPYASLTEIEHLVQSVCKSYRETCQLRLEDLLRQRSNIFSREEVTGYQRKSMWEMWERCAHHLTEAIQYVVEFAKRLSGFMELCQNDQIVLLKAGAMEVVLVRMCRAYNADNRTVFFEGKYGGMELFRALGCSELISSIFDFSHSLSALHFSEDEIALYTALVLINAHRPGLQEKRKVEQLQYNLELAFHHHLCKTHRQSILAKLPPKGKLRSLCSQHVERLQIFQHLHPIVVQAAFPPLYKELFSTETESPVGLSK
Procedure: Various concentrations of test ligands in 0.1 microlitres DMSO were dispensed to assay plates using an Labcyte Echo acoustic dispenser. Two pre-mixes were prepared and incubated for 1 hr at room temp in the dark.

Structure (SMILES) | IC50 [1] | IC50 ([2]; read-out: RORγ FRET-Mean IC50) | IC50 [2]
O=C(O)c1ccc(-n2cc(C(=O)c3c(Cl)cccc3C(F)(F)F)c3ccccc32)cc1 [Comparator 1, 4-[3-[2-chloro-6-(trifluoromethyl)benzoyl]-1H-indol-1-yl]benzoic acid, reference compound] | 45.3 nM | – | –
O=C(O)c1ccc(-n2cc(C(=O)c3c(F)cccc3C(F)(F)F)c3cccc(F)c32)cc1 [Comparator 2, 4-[7-fluoro-3-[2-fluoro-6-(trifluoromethyl)benzoyl]-1-H-indol-1-yl]benzoic acid, reference compound] | 48.2 nM | 61.9 nM | –
O=C(O)c1ccc(-n2cc(C(=O)c3c(F)cccc3C(F)(F)F)c3cccc(F)c32)c(F)c1 [Comparator 5, 3-fluoro-4-[7-fluoro-3-[2-fluoro-6-(trifluoromethyl)benzoyl]-1H-indol-1-yl]benzoic acid, reference compound] | 47 nM | 111 nM | –
O=C(O)c1ccc(-n2cc(C(=O)c3c(Cl)cccc3C(F)(F)F)c3cccc(F)c32)cc1O [Compound 2, 4-[3-[2-chloro-6-(trifluoromethyl)benzoyl]-7-fluoro-indol-1-yl]-2-hydroxy-benzoic acid] | 12.6 nM | 17.9 nM | –
O=C(O)c1ccc(-n2cc(C(=O)c3c(Cl)cccc3C(F)(F)F)c3cccc(F)c32)c(F)c1 [Compound 3, 4-[3-[2-chloro-6-(trifluoromethyl)benzoyl]-7-fluoro-indol-1-yl]-3-fluoro-benzoic acid] | 15 nM | 37.9 nM | –
O=C(O)c1ccc(-n2cc(C(=O)c3c(Cl)cccc3C3CC3)c3cccc(F)c32)c(F)c1 [Compound 4, 4-[3-(2-chloro-6-cyclopropyl-benzoyl)-7-fluoro-1H-indol-1-yl]-3-fluoro-benzoic acid] | 31.9 nM | – | 42.9 nM
